This assay has as its target T1, Nav 1.7 (Homo sapiens, UniProt Q15858).
T1 construct: expressed in transfected cells
The experiment in a line: Whole-cell voltage clamp electrophysiology, automated patch clamp (marker c in Table of Examples). The format is cell-based. Particulars: read-out: Nav 1.7 activity. The procedure, abridged:
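A voltage protocol weighted toward inactivated-state block was used to test compounds on stably expressing cells, with pulses from −65 mV holding to −10 mV test and −100 mV. Currents came from whole-cell automated patch-clamp recordings, either IonWorks Quattro or other automated instruments, usually in perforated-patch mode.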
On the technique in general: The patch-clamp technique gives a direct electrical read-out from membranes.

Where [1] appears, read: marker c: Automated patch clamp data.
Setting [2] is: marker c = Automated patch clamp data.

Like-named read-outs stand apart in the source and are kept apart here. Bounds are passed on as bounds.

T1 sequence (Q15858 whole entry): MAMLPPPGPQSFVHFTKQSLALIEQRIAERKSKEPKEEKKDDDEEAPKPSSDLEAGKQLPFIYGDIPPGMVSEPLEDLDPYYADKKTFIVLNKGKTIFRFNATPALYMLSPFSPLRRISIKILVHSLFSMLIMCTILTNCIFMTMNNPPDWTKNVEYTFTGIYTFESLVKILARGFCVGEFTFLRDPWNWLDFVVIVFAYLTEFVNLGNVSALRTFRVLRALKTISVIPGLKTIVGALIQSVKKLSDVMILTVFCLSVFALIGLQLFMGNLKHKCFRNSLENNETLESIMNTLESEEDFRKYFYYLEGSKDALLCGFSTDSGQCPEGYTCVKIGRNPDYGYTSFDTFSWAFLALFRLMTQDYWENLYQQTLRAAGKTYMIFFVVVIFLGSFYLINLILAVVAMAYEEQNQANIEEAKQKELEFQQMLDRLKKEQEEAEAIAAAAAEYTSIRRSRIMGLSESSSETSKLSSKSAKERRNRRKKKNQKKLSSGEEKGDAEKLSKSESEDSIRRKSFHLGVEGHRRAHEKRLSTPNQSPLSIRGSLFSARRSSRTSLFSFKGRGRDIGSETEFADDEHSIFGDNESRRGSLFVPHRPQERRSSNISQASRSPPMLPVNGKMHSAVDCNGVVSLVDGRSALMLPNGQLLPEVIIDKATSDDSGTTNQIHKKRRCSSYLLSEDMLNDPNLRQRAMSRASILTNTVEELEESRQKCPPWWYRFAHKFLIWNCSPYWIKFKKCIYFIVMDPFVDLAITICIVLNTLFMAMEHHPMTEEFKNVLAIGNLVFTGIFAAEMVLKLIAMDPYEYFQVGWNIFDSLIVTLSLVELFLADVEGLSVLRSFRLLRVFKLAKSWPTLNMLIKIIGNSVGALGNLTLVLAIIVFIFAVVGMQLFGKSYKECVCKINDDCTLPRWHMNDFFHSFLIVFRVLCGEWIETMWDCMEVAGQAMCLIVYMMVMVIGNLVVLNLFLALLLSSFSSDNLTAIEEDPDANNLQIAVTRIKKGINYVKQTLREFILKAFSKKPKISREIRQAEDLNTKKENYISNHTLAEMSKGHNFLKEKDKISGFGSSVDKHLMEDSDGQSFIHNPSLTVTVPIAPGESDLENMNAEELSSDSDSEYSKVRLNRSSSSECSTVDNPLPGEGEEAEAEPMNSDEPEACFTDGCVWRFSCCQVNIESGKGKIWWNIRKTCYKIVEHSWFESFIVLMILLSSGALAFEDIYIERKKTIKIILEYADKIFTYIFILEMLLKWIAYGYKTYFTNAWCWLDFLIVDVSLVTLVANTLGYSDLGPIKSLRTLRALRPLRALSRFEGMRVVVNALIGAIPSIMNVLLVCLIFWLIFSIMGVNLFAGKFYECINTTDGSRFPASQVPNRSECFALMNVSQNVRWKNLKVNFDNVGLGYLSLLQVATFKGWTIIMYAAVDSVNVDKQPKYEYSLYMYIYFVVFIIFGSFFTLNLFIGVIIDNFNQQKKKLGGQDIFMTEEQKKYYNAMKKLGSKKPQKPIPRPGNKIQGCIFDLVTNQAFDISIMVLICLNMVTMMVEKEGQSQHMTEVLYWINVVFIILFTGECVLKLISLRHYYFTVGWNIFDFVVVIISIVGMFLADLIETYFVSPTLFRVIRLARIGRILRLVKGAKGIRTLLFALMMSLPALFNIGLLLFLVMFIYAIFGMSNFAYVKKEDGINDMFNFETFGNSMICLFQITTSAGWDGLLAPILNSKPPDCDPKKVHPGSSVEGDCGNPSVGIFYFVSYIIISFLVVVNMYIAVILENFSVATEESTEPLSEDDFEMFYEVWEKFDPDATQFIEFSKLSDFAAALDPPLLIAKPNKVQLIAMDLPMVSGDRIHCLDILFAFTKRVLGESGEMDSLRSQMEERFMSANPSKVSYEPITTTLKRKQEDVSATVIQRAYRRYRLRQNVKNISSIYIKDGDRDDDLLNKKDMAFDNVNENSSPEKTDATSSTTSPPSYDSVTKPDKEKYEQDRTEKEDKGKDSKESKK

Turning to `CN(c1ccccc1)c1nc(N)nc(-c2noc(-c3cc4ccccc4o3)n2)n1` [Example 64, 6-(5-Benzofuran-2-yl-[1,2,4]oxadiazol-3-yl)-N-methyl-N-phenyl-[1,3,5]triazine-2,4-diamine], under setting [1], the IC50 is 1930 nM.
Consider `CN(c1nc(N)nc(-c2noc(-c3ccc(OCC4CC4)nc3)n2)n1)c1cccc(F)c1F` [Example 140, 6-{5-[6-(cyclopropylmethoxy)pyridin-3-yl]-1,2,4-oxadiazol-3-yl}-2-N-(2,3-difluorophenyl)-2-N-methyl-1,3,5-triazine-2,4-diamine], for which the IC50 under setting [1] stood at 85 nM.
As for `CN(c1ccccc1)c1nc(N)nc(-c2noc(C(=O)N3CCC(COCCC(F)(F)F)CC3)n2)n1` [Example 464, 2-N-Methyl-2-N-phenyl-6-[5-({4-[(3,3,3-trifluoropropoxy)methyl]piperidin-1-yl}carbonyl)-1,2,4-oxadiazol-3-yl]-1,3,5-triazine-2,4-diamine], under setting [2], the IC50 came out at 719 nM.
As for `CN(c1ccccc1)c1nc(N)nc(-c2noc(C3CN(Cc4ccccc4)C3)n2)n1` [Example 383, 6-[5-(1-benzylazetidin-3-yl)-1,2,4-oxadiazol-3-yl]-2-N-methyl-2-N-phenyl-1,3,5-triazine-2,4-diamine], under setting [2], the IC50 is 1540 nM.
Turning to `CN(c1ccccc1)c1nc(N)nc(-c2noc(-c3ncccc3C(=O)NCC3CC3)n2)n1` [Example 369, 2-(3-{4-amino-6-[methyl(phenyl)amino]-1,3,5-triazin-2-yl}-1,2,4-oxadiazol-5-yl)-N-(cyclopropylmethyl)pyridine-3-carboxamide], the IC50 under setting [2] was determined as 1320 nM.
Still for that read-out and setting: in the case of `CN(c1ccccc1)c1nc(N)nc(-c2noc(C(=O)N3C[C@@H]4[C@@H](COC5CCCC5)[C@@H]4C3)n2)n1` [Example 405, 6-(5-{[-6-[(cyclopentyloxy)methyl]-3-azabicyclo[3.1.0]hexan-3-yl]carbonyl}-1,2,4-oxadiazol-3-yl)-2-N-methyl-2-N-phenyl-1,3,5-triazine-2,4-diamine] it was 1280 nM.
In the case of `CC(C)S(=O)(=O)CC1CCN(c2nc(-c3nc(N)nc(N(C)c4ccccc4)n3)no2)CC1` [Example 181, 2-N-methyl-2-N-phenyl-6-(5-{4-[(propane-2-sulfonyl)methyl]piperidin-1-yl}-1,2,4-oxadiazol-3-yl)-1,3,5-triazine-2,4-diamine], the IC50 under setting [1] was 9080 nM.
As to `COc1ccc(F)cc1-c1nc(-c2nc(N)nc(N(C)c3cccc(C)c3)n2)no1` [Example 186], under setting [1], the IC50 came to 87 nM.
Consider `Nc1nc(Nc2ccccc2)nc(-c2noc(C3CCN(S(=O)(=O)C4CCCC4)CC3)n2)n1` [Example 516, 6-{5-[1-(cyclopentanesulfonyl)piperidin-4-yl]-1,2,4-oxadiazol-3-yl}-2-N-phenyl-1,3,5-triazine2,4-diamine], for which the IC50 under setting [2] was over 9560 nM.
`Nc1nc(Nc2ccccc2)nc(-c2noc(-c3cc[nH]n3)n2)n1` [Example 40, N-Phenyl-6-[5-(1H-pyrazol-3-yl)-[1,2,4]oxadiazol-3-yl]-[1,3,5]triazine-2,4-diamine]: the IC50 under setting [1] is 2720 nM.
Turning to `CCOC1CCN(C(=O)c2nc(-c3nc(N)nc(N(C)c4ccccc4)n3)no2)CC1` [Example 458, 6-{5-[(4-ethoxypiperidin-1-yl)carbonyl]-1,2,4-oxadiazol-3-yl}-2-N-methyl-2-N-phenyl-1,3,5-triazine-2,4-diamine], the IC50 under setting [2] turned out to be 4720 nM.
`CN(c1ccccc1)c1nc(N)nc(-c2noc(-c3ncc[nH]3)n2)n1` [Example 65, 6-(5-Imidazol-2-yl-[1,2,4]oxadiazol-3-yl)-N-methyl-N-phenyl-[1,3,5]triazine-2,4-diamine]: the IC50 under setting [1] worked out at 5220 nM.
On the same count and under the same terms, with `COc1ccc(-c2nc(-c3nc(N)nc(N(C)c4ccccc4)n3)no2)cn1` [Example 47, 6-[5-(6-Methoxy-pyridin-3-yl)-[1,2,4]oxadiazol-3-yl]-N-methyl-N-phenyl-[1,3,5]triazine-2,4-diamine] the figure was 1920 nM.
`CN(c1ccccc1)c1nc(N)nc(-c2noc(C3CCC(NC(=O)CC(F)(F)F)CC3)n2)n1` (stereo not drawn) [Example 427, N-[4-(3-{4-amino-6-[methyl(phenyl)amino]-1,3,5-triazin-2-yl}-1,2,4-oxadiazol-5-yl)cyclohexyl]-3,3,3-trifluoropropanamide]: the IC50 under setting [2] stood at 4920 nM.
Turning to `CN(c1ccccc1)c1nc(N)nc(-c2noc(-c3cccc4c3OCC4)n2)n1` [Example 63, 6-[5-(2,3-Dihydro-benzofuran-7-yl)-[1,2,4]oxadiazol-3-yl]-N-methyl-N-phenyl-[1,3,5]triazine-2,4-diamine], under setting [1], the IC50 was 3380 nM.
In the case of `COCCOCc1ccc(-c2nc(-c3nc(N)nc(N(C)c4ccccc4)n3)no2)cn1` [Example 143, 6-{5-[6-(2-Methoxy-ethoxymethyl)-pyridin-3-yl]-[1,2,4]oxadiazol-3-yl}-N-methyl-N-phenyl-[1,3,5]triazine-2,4-diamine], under setting [1], the IC50 worked out at 3570 nM.
`CC(C)S(=O)(=O)N1CC(c2nc(-c3nc(N)nc(N(C)c4ccccc4)n3)no2)C1` [Example 308, 2-N-methyl-2-N-phenyl-6-{5-[1-(propane-2-sulfonyl)azetidin-3-yl]-1,2,4-oxadiazol-3-yl}-1,3,5-triazine-2,4-diamine]: under setting [2], the IC50 was 8770 nM.
Same read-out and setting: with `CN(c1ccccc1)c1nc(N)nc(-c2noc(C3CN(S(=O)(=O)c4ccccc4)C3)n2)n1` [Example 313, 6-{5-[1-(benzenesulfonyl)azetidin-3-yl]-1,2,4-oxadiazol-3-yl}-2-N-methyl-2-N-phenyl-1,3,5-triazine-2,4-diamine] the figure was 4860 nM.
The same measure, in the same setting: with `Nc1nc(Nc2cc(F)ccc2F)nc(-c2noc(-c3ccc(OCC(F)(F)F)nc3)n2)n1` [Example 343, 2-N-(2,5-difluorophenyl)-6-{5-[6-(2,2,2-trifluoroethoxy)pyridin-3-yl]-1,2,4-oxadiazol-3-yl}-1,3,5-triazine-2,4-diamine] the figure was 195 nM; with `CN(c1ccccc1)c1nc(N)nc(-c2noc(N3CC[C@@H](OCC(F)(F)F)C3)n2)n1` [Example 443, 2-N-methyl-2-N-phenyl-6-{5-[(3R)-3-(2,2,2-trifluoroethoxy)pyrrolidin-1-yl]-1,2,4-oxadiazol-3-yl}-1,3,5-triazine-2,4-diamine], 7290 nM.
Same read-out and setting: with `Nc1nc(Nc2ccccc2)nc(-c2noc(N3CCC4(CC3)COC4)n2)n1` [Example 246, 6-(5-{2-oxa-7-azaspiro[3.5]nonan-7-yl}-1,2,4-oxadiazol-3-yl)-2-N-phenyl-1,3,5-triazine-2,4-diamine] the figure was 9360 nM.
`COc1cccc(-c2nc(-c3nc(N)nc(N(C)c4ccccc4)n3)no2)n1` [Example 415, 6-[5-(6-methoxypyridin-2-yl)-1,2,4-oxadiazol-3-yl]-2-N-methyl-2-N-phenyl-1,3,5-triazine-2,4-diamine]: under setting [2], the IC50 came to 567 nM.
Take `Nc1nc(Nc2ccccc2)nc(-c2noc(-c3ccc(COC4CCC4)nc3)n2)n1` [Example 213, 6-{5-[6-(cyclobutoxymethyl)pyridin-3-yl]-1,2,4-oxadiazol-3-yl}-2-N-phenyl-1,3,5-triazine-2,4-diamine]: under setting [2], the IC50 stood at 67 nM.
For the compound `CCN(c1ccccc1)c1nc(N)nc(-c2noc(-c3ccccc3Cl)n2)n1` [Example 192, 6-[5-(2-chlorophenyl)-1,2,4-oxadiazol-3-yl]-2-N-ethyl-2-N-phenyl-1,3,5-triazine-2,4-diamine], the IC50 under setting [1] was 123 nM.
Take `CN(c1ccccc1)c1nc(N)nc(-c2noc([C@@H]3CCCN3C(=O)CC(F)(F)F)n2)n1` [Example 451, 1-[(2S)-2-(3-{4-amino-6-[methyl(phenyl)amino]-1,3,5-triazin-2-yl}-1,2,4-oxadiazol-5-yl)pyrrolidin-1-yl]-3,3,3-trifluoropropan-1-one]: the IC50 under setting [2] was 7950 nM.
On to `Nc1nc(Nc2cccc(Cl)c2)nc(-c2noc(-c3ccccn3)n2)n1` [Example 265, 2-N-(3-chlorophenyl)-6-[5-(pyridin-2-yl)-1,2,4-oxadiazol-3-yl]-1,3,5-triazine-2,4-diamine], for which, under setting [2], the IC50 amounted to 386 nM.
As to `CN(c1ccccc1)c1nc(N)nc(-c2noc(C3CCC(NC(=O)CC4CC4)CC3)n2)n1` (stereo not drawn) [Example 426, N-[4-(3-{4-amino-6-[methyl(phenyl)amino]-1,3,5-triazin-2-yl}-1,2,4-oxadiazol-5-yl)cyclohexyl]-2-cyclopropylacetamide], the IC50 under setting [2] was found to be 6680 nM.
Still for that read-out and setting: in the case of `CN(c1ccccc1)c1nc(N)nc(-c2noc(C(=O)N3CCC(=CCC(F)(F)F)CC3)n2)n1` [Example 322, 2-N-methyl-2-N-phenyl-6-(5-{[4-(3,3,3-trifluoropropylidene)piperidin-1-yl]carbonyl}-1,2,4-oxadiazol-3-yl)-1,3,5-triazine-2,4-diamine] it was 3270 nM; in that of `CC(C)CS(=O)(=O)N1CCC(c2nc(-c3nc(N)nc(N(C)c4ccccc4)n3)no2)CC1` [Example 507, 2-N-methyl-6-(5-{1-[(2-methylpropane)sulfonyl]piperidin-4-yl}-1,2,4-oxadiazol-3-yl)-2-N-phenyl-1,3,5-triazine-2,4-diamine], 1230 nM; in that of `CN(c1ccccc1)c1nc(N)nc(-c2noc(-c3ccc4c(c3)CCO4)n2)n1` [Example 339, 6-[5-(2,3-dihydro-1-benzofuran-5-yl)-1,2,4-oxadiazol-3-yl]-2-N-methyl-2-N-phenyl-1,3,5-triazine-2,4-diamine], 107 nM.
Take `COc1ccccc1-c1nc(-c2nc(N)nc(N(C)c3cccc(C)c3)n2)no1` [Example 92, 6-[5-(2-Methoxy-phenyl)-[1,2,4]oxadiazol-3-yl]-N-methyl-N-m-tolyl-[1,3,5]triazine-2,4-diamine]: the IC50 under setting [1] is 511 nM.
On the same count and under the same terms, in the case of `Cc1cccc(N(C)c2nc(N)nc(-c3noc(-c4cccs4)n3)n2)c1` [Example 93, N-Methyl-6-(5-thiophen-2-yl-[1,2,4]oxadiazol-3-yl)-N-m-tolyl-[1,3,5]triazine-2,4-diamine] it was 931 nM.
Take `CC(C)(C)OC(=O)N1CCC(c2nc(-c3nc(N)nc(Nc4ccccc4)n3)no2)CC1` [Example 512, tert-butyl 4-{3-[4-amino-6-(phenylamino)-1,3,5-triazin-2-yl]-1,2,4-oxadiazol-5-yl}piperidine-1-carboxylate]: under setting [2], the IC50 came out at 603 nM.

Values taken from patent publication US8895733B2 (Novartis AG, priority 2010, dated 2014).
